Measured values: US20220356525A1, “METHODS OF DETERMINING WHETHER PATIENTS SUFFERING FROM ACUTE MYELOID LEUKEMIA WILL ACHIEVE A RESPONSE TO AN MYC-TARGETING THERAPY” (INSERM (INSTITUT NATIONAL DE LA SANTÉ ET DE LA RECHERCHE …, priority 2019, published 2022)

How the values were obtained:
[1] = test system: KG1a, U937 and IMS-M2 cells; test: OTX015 sensitivity with SAH supplementation; type: cell-based, human
Source text: We next used metabolism profiling to characterize the effect of folate pathway alteration on global cell metabolism in U937 cells. […] ShRNA-mediated MTHFR depletion induced a similar increase in SAH levels as that observed upon folate withdrawal in AML cell lines U937 and IMS-M2 (data not shown).

CDK7 = CDK7 (Homo sapiens, UniProt P50613); conditions: Table 1, Kwiatkowski et al. (2014); cited from earlier work
CDK7, sequence (P50613 whole entry): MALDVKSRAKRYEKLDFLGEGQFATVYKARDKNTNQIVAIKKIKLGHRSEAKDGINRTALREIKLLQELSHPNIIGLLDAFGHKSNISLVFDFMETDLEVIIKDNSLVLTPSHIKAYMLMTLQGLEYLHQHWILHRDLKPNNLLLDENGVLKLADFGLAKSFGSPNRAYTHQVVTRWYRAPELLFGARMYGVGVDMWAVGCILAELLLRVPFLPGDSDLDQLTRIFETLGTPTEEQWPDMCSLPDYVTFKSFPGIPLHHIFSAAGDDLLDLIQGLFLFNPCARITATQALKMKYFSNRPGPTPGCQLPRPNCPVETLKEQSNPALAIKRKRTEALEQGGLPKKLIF
CDK7, sequence (P51946 whole entry partner): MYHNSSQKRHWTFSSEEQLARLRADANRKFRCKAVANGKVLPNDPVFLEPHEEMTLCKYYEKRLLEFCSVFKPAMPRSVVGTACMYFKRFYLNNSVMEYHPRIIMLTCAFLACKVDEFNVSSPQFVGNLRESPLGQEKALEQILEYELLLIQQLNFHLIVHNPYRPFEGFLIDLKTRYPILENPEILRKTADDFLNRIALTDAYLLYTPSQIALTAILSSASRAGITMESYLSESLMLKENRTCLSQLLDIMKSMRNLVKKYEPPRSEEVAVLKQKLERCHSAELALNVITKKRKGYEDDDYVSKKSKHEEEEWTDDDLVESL

[2] = test system: AML cell lines (KG1a, IMS-M2, and U937); test: AML cell line sensitivity to BET/CDK7 inhibitors in standard versus nutrient-deprived (folic acid-starved) media; type: cell-based, human; conditions: for AML cell line sensitivity: folic acid withdrawal
Source text: BET proteins interact with acetylated histones in active regulatory domains (promoters and enhancers) and promote RNA PolII activity. Despite the general nature of this mechanism, BET inhibitors have shown selective effects on gene expression through suppression of […] and MYC-related transcriptional programs (8, 11, 12). Two cohorts of AML patients (TCGA-LAML, n=198 and GSE14468, n=526) were queried with multiple gene sets related to MYC transcriptional programs as well as vitamin, amino acid, and nucleotide metabolism using single sample Gene Set Enrichment Analysis (ssGSEA). Correlation between gene sets was queried across all patients from each cohort to pinpoint potential crosstalk between active MYC programs and specific metabolic pathways (data not shown).
(§1) To investigate further the relationship between folic acid starvation and increased BET inhibitor resistance, we compiled a panel of AML cell lines harboring diverse genetic alterations. […] The effect of folic acid removal was also evaluated in cell lines treated either with a second BET inhibitor, JQ1, or with THZ-1, a covalent inhibitor of CDK7, another key factor in transcriptional elongation at super-enhancer regions and a strong inhibitor of MYC expression (data not shown). […] Therefore, we studied selective suppression of BRD4 by short hairpin RNA (shRNA) in two AML cell lines.

[3] = test system: AML cell lines: KG1a, OCI-AML2, and U937; test: OTX015 response and colony number after MTHFR-directed shRNAs in AML cell lines; type: cell-based, human
Source text: Dietary folic acid undergoes several conversion steps into intermediate metabolites before generation of 5,10-methylene-THF (5,10-CH2 THF). 5,10-CH2 THF is then either reduced in the folate cycle or oxidized in the formate-producing tetrahydrofolate salvage cycle, depending on cellular needs. Despite the fact that folic acid can ultimately be processed through these two interconnected pathways, we observed in our previous ssGSEA analyses that active MYC gene signatures were highly correlated with activation of tetrahydrofolate salvage cycle, but not with folate cycle-related gene sets (data not shown). […] Five central enzymes control the multi-step conversion of dietary folate into 5,10-methylene-THF (5,10-CH2 THF) before its reduction to 5-methyl-THF (5-CH3 THF) and recycling to THF. […] Finally, we abrogated Mthfr expression in primary murine MLL-AF9-driven AML cells using two Mthfr-directed shRNAs before treatment of engrafted mice with JQ1 (data not shown).

IMS-M2 AML cells = test: OTX015 sensitivity after shRNA knockdown of folate cycle enzymes; type: cell-based, human; conditions: for increase of IC50 of OTX015: average
[4] = test system: MLL-AF9-transformed Mthfr knockout primary murine cells; test: OTX015 resistance after Spi1 knockdown in Mthfr knockout cells; type: cell-based
U937 cell colonies = test: Colony formation assay with OTX015 at reduced folic acid; type: cell-based, human; conditions: 125-fold decrease in folic acid (1 mg/L to 0.008 mg/L)
Experimental: as §1

AML cells = test: Apoptosis in response to OTX015 upon folic acid withdrawal; type: cell-based, human
Experimental: as §1

IMS-M2 and U937 cells [5] = test: OTX015 resistance after SPI1 knockdown with folate withdrawal or MTHFR suppression; type: cell-based, human; conditions: SPI1 depletion; folate cycle disturbed or MTHFR suppressed
Source text: To explore functionally whether SPI1 transcriptional program activation induced by folate cycle disruption promotes resistance to BRD4 inhibition, we knocked down SPI1 in IMS-M2 and U937 cells before folate withdrawal or MTHFR suppression (FIGS. 5F and 5G).

[6] = test system: CRISPR/Cas9-edited KG1a clones; test: OTX015 sensitivity and colony formation of CRISPR/Cas9-edited KG1a clones with MTHFR variants; type: cell-based, human
Source text: Error bars represent mean±SD. Experiment performed at least two independent times.
(§2) Error bars represent mean±SD.
Additional information is provided in the supplementary material and methods section.
Finally, we engineered a tractable MLL-AF9-driven mouse model of AML in which Mtfhr genotype status was either homozygous wild-type, heterozygous or homozygous knockout.

U937 cells = test: OTX015 sensitivity after EED, EHMT1, SETDB1 hairpins; type: cell-based, human; conditions: hairpins reducing EED, EHMT1 and SETB1 protein
[7] = test system: MYC transcriptional program; test: RNA sequencing and gene set enrichment after OTX015 for 24 hours; type: cell-based, human; conditions: IMS-M2 and U937; irrespective of folate status; FDR<0.25
[8] = test system: MLL-translocated primary patient samples with AML; test: OTX015 sensitivity of primary AML patient samples; type: cell-based, human
Experimental: as §2, §1
Previous studies have extensively characterized two common MTHFR genetic variants, C677T and A1298C, encoding MTHFR enzyme variants with reduced activity, resulting in hyperhomocysteinemia in human carriers. In particular, the homozygous variant 677 TT and 1298 CC genotypes are present in ˜10% of Caucasians and display only 30% and 60% of the homozygous wild-type 677 CC and 1298 AA enzyme activities, respectively (16, 17). […] Five KG1a clones either 1) wild-type 677 CC and 1298 AA, 2) heterozygous 677 CT or 1298 AC, or 3) homozygous 677 TT or 1298 CC, were selected and genotyped via allelic discrimination technique (FIG. 1A). […] Finally, we engineered a tractable MLL-AF9-driven mouse model of AML in which Mtfhr genotype status was either homozygous wild-type, heterozygous or homozygous knockout.

OCI-AML2 cells = test: Pooled CRISPR/Cas9 epigenetic screen with JQ1; type: cell-based, human
Experimental: OCI-AML2 cells were seeded into six-well plates at a density of 3×10^6 cells per well and transduced at MOI 0.2. […] 24 hours post-transduction, cells were replated into puromycin-containing media. A sample was collected at 48 hours post-puromycin to confirm library coverage in the transduced population. Transduced cells were expanded in puromycin for 10 days before drug, when the transduced population was split into vehicle (DMSO) and JQ1 conditions and maintained for two weeks. Deep sequencing was performed by Hudson Alpha Institute for Biotechnology on an Illumina Nextseq platform (75 bp, single-ended) to identify differences in library composition. Additional information is provided in the supplementary material and methods section.

MLL-AF9-driven AML cells = test: MLL-AF9-driven AML mouse models treated with JQ1; type: in vivo, mice
Experimental: (E) MLL-AF9-transformed GFP-positive granulomonocytic progenitors (Sca-1^−/c-KIT^+/CD16/32^+/CD34^+/MPO^+) from homozygous wild-type […], or heterozygous (+/−) and homozygous (−/−) Mthfr knockout mice transplanted into sublethally-irradiated recipient mice before treatment with vehicle or 50 mg/kg JQ1 for 7 days. Proportion of GFP-positive MLL-AF9 leukemic cells in bone marrow from five mice per group. p-value by Mann-Whitney test. n.s, nonsignificant (p>0.05). Error bars represent mean±SD.
The French National Committee on Animal Care reviewed and approved all mouse experiments. Sample size was influenced by historical penetrance and consistency of MLL-AF9-driven in vivo models. For the Mthfr knockout AML mouse model, BALB/cJ mice were purchased from Charles River Laboratories. Each recipient mouse was transplanted with transduced Scal^−/c-Kit^+ myeloid progenitors sorted from the total bone marrow of three donor mice. Approximatively two months post-transplantation, sick mice were euthanized and bone marrow harvested before flow-based sorting of MLL-AF9-positive granulo-monocytic bone marrow progenitor population (GFP^+/Sca-1^−/c-Kit^+/Cd16/32^+/Cd34^+) and PCR-based confirmation of Mthfr knockout status. 0.2×10^6 MLL-AF9-positive Mthfr^+/+, Mthfr^+/−, and Mthfr^−/− cells were then reinjected into sublethally-irradiated secondary recipient mice treated daily by intraperitoneal injection with 50 mg/kg JQ1 (10% DMSO+90% G5W).
For folate starvation experiments, 5-week old male C57BL/6J mice were given regular or folate-deficient casein-reconstituted diet (Safe-Diets) for 4 weeks before sublethal irradiation (350cGy) and injection with 0.2×10^6 MLL-AF9-positive L-GMP cells before treatment with 35 mg/kg or 50 mg/kg JQ1 (10% DMSO+90% G5W) for 7 days. For Mthfr knockdown experiments, MLL-AF9-positive L-GMP cells were infected with a control or two Mthfr-directed shRNAs cloned into an MSCV-miRE-SV40-eBFP vector modified from the MSCV-miRE_shBRD9_561-SV40-GFP vector (Addgene, #75139) by substitution of the GFP cassette with an eBFP fluorescent marker. 0.2×10^6 infected cells were injected into sublethally-irradiated 5-week old C57BL/6J recipient mice. Additional information is provided in the supplementary material and methods section.

BRD4 = BRD4 (Homo sapiens, UniProt O60885); conditions: previous studies; cited from earlier work
IMS-M2 and U937 cells [9] = conditions: 50 μM 5-CH3 THF; MTHFR-directed shRNAs
[10] = folic acid-starved media versus standard media, panel of AML cell lines

Nc1ncnc2c1ncn2[C@@H]1O[C@H](CSCC[C@H](N)C(=O)O)[C@@H](O)[C@H]1O [SAH, S-adenosylhomocysteine]
cytoprotective effect of SAH against OTX015 ([1]; methionine depleted 300-fold, IMS-M2 cells): enhanced the cytoprotective effect of SAH against OTX015
resistance to OTX015 with SAH ([1]; methionine depleted, U937 and KG1a cells): even greater resistance to OTX015 than folate restriction alone

CC[C@H](CO)Nc1nc(NCc2ccccc2)c2ncn(C(C)C)c2n1 [Roscovitine]
inhibitory activity toward CDK7 relative to other CDKs (CDK7): lower inhibitory activity toward CDK7 than toward at least one other CDK

CN(C)C/C=C/C(=O)Nc1ccc(C(=O)Nc2cccc(Nc3ncc(Cl)c(-c4c[nH]c5ccccc45)n3)c2)cc1 [THZ-1]
AML cell line sensitivity [2]: significantly dampened

Cc1sc2c(c1C)C(c1ccc(Cl)cc1)=N[C@@H](CC(=O)Nc1ccc(O)cc1)c1nnc(C)n1-2 [OTX015]
response to increasing doses of OTX015 ([3]; MTHFR suppression): substantially weakened the response
colony number upon OTX015 treatment ([3]; MTHFR-depleted versus shCT-infected cells): significant increase in colony number
increase of IC50 of OTX015 (IMS-M2 AML cells; hairpins targeting DHFR and DHFR2): 3 fold
increase of IC50 of OTX015 (IMS-M2 AML cells; hairpins targeting MTHFR): 7 fold
response to OTX015 (IMS-M2 AML cells; hairpins targeting SHMT1 and MTR): did not significantly alter response
resistance to OTX015 [4]: abrogated resistance to OTX015
resistance to OTX015 ([2]; folic acid starvation, KG1a, IMS-M2, U937): consistently enhanced resistance
area under curve (AUC) [2, 10]: significantly increased
half-maximal inhibitory concentration (IC50) [2, 10]: significantly increased
resistance to OTX015 ([2]; phenylalanine and histidine starvation): increased resistance to OTX015 in a subset of AML cell lines
number of colonies in presence of OTX015 (U937 cell colonies): significantly increased the number of U937 cell colonies
apoptosis in response to OTX015 (AML cells): decrease in apoptosis
OTX015 resistance (IMS-M2 and U937 cells [5]): significantly reduced OTX015 resistance
number of colonies upon OTX015 treatment ([6]; 677 TT and 1298 CC homozygous versus wild-type clones, 1 μM OTX015): substantially higher
OTX015 sensitivity (U937 cells): markedly alleviated OTX015 sensitivity
enrichment of MYC gene sets in genes suppressed by OTX015 [7]: highly enriched
response to OTX015 (IC90, 5 days) ([8]; 16 samples, homozygous and compound heterozygous MTHFR genotype versus wild-type and heterozygous): responded significantly less
IC50 ([8]; folic acid withdrawal): markedly increased

CC(C)CC(=O)Nc1[nH]nc2c1CN(C(=O)C1CCN(C)CC1)C2(C)C [PHA-793887]
inhibitory activity toward CDK7 relative to other CDKs (CDK7): lower inhibitory activity toward CDK7 than toward at least one other CDK

CN1CC[C@H](c2c(O)cc(O)c3c(=O)cc(-c4ccccc4Cl)oc23)[C@H](O)C1 [flavopiridol]
inhibitory activity toward CDK7 relative to other CDKs (CDK7): lower inhibitory activity toward CDK7 than toward at least one other CDK

Cc1sc2c(c1C)C(c1ccc(Cl)cc1)=N[C@@H](CC(=O)OC(C)(C)C)c1nnc(C)n1-2 [JQ1, tert-butyl 2-[(9S)-7-(4-chlorophenyl)-4,5,13-trimethyl-3-thia-1,8,11,12-tetrazatricyclo[8.3.0.02,6]trideca-2(6),4,7,10,12-pentaen-9-yl]acetate]
effect of gene knockout on cells treated with JQ1 (OCI-AML2 cells; knockout of EED, EIMT1 and SETDB1, 2 weeks): rescued cells from JQ1
effect of gene knockout on cells treated with JQ1 (OCI-AML2 cells; knockout of KDMIA, JMJDIC and KDM3B): enhanced cell sensitivity to JQ1
AML cell line sensitivity [2]: significantly dampened
leukemic burden (MLL-AF9-driven AML cells; animals transplanted with Mthfr-depleted (shRNA) blasts, JQ1 treatment): not significantly decreased
sensitivity of leukemic burden to JQ1 (MLL-AF9-driven AML cells; control shRNA counterparts): striking sensitivity
sensitivity to JQ1 (GFP-positive MLL-AF9 leukemic cells in bone marrow) (MLL-AF9-driven AML cells; loss of a single copy of Mthfr, 50 mg/kg JQ1 for 7 days): sufficient to attenuate sensitivity
anti-leukemic activity (MLL-AF9-driven AML cells; mice fed no folate diet versus regular diet): markedly attenuated
overall survival after JQ1 treatment (MLL-AF9-driven AML cells; mice injected with Mthfr-depleted cells versus control leukemic cells): significantly shorter
inhibition of BRD4 (BRD4): potently inhibited

CN1c2c(nc(N)[nH]c2=O)NCC1CNc1ccc(C(=O)N[C@@H](CCC(=O)O)C(=O)O)cc1 (stereo partly drawn) [5-CH3 THF, 5-methyltetrahydrofolate]
effect on cytotoxicity of OTX015 (fold change of IC50, 5 days) (IMS-M2 and U937 cells [9]): restored a cytotoxic effect of OTX015
effect on response to OTX015 (fold change of IC50, 5 days) ([6]; 50 μM 5-CH3 THF, 677 TT or 1298 CC clones versus wild-type): substantially enhanced response to OTX015
effect on response to OTX015 (IC90, 5 days) ([8]; 50 μM 5-CH3 THF, three patient samples with altered MTHFR genotype): sensitized to OTX015
